Laboratory results: publication PMC5424110, “Preclinical anti-arthritic study and pharmacokinetic properties of a potent histone deacetylase inhibitor MPT0G009” (Cell Death & Disease, 2014)
“Also recorded” adds a separate entry of the source.

Key:
[1] = test system: RAW264.7 macrophages; test: Osteoclast differentiation assay (TRAP stain), M-CSF/RANKL-induced; type: cell-based, mouse; settings: RAW264.7, M-CSF/RANKL 50 ng/ml 5 days; 5 nM MPT0G009 or 50 nM SAHA
Procedure: Osteoclast formation was measured by quantifying cells stained for the osteoclast marker TRAP using an acid phosphatase kit (387-A; Sigma-Aldrich). Briefly, the specimens were fixed for 30 s in fixative solution (25.5% citrate solution, 66.3% acetone, 8.2% of 37% formaldehyde), then incubated for 1 h at 37 °C with a mixture of the provided naphthol AS-BI phosphate and tartrate solutions, followed by counterstaining with hematoxylin solution. Osteoclasts were counted as TRAP-positive multinuclear (>3 nuclei) cells using light microscopy. The morphological features of osteoclasts were also photographed.

[2] = molecular target: T1, recombinant HDAC2 (Homo sapiens, UniProt Q92769); test: Fluorogenic assay kit, recombinant HDAC2 enzyme activity; type: biochemical; settings: mean±S.E.M., three replicate experiments; read-out: IC50 (nM) of HDAC isoforms enzyme, HDAC2
T1 construct: purchased BPS Bioscience Corp. (San Diego, CA, USA)
T1 sequence (Q92769 whole entry, canonical isoform): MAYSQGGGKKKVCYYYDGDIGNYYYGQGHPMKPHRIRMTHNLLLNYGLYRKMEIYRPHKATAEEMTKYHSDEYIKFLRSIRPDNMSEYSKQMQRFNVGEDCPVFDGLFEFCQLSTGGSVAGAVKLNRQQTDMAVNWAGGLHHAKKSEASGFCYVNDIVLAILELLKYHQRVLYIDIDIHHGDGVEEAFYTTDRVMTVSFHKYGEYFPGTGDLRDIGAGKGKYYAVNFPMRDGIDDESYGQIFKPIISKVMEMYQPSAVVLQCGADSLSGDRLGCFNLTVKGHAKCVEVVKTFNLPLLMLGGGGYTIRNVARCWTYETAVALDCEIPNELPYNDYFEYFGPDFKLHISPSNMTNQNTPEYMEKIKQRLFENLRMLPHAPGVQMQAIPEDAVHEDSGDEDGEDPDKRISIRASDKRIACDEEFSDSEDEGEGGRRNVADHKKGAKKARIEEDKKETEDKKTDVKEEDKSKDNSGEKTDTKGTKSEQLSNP
From the text: (§1) Using kits that contained different recombinant HDAC isoforms, we evaluated the ability of MPT0G009 to inhibit HDAC-mediated deacetylation of lysine residues on the substrates that were provided. […] Fluorogenic HDAC assay kits were used to assess the ability of HDAC inhibitors to inhibit deacetylation of lysine residues on the substrate by recombinant HDAC1, 2, 3, 4, 6 or 8 according to the manufacturer's instructions.

[3] = test system: histone H3 acetylation in HIG-82 synoviocytes; test: Western blot of acetyl histone H3, HIG-82 cells; type: cell-based, rabbit; settings: 3 μM MPT0G009 or 60 μM SAHA, 6, 12 or 24 h, starting at 6 h
[4] = test system: HDACs in rabbit synovial fibroblast cell line HIG-82; test: HDAC activity assay of cell lysates (HIG-82); type: cell-based; settings: HIG-82 cell line
From the text: We have synthesized 1-arylsulfonyl-5-(N-hydroxyacrylamide) indolines derivative HDAC inhibitors. […] In this study, we evaluated the anti-arthritic effects of MPT0G009 in vitro and in an in vivo model and determined the pharmacokinetics and its maximum tolerated dose (MTD).
Colorimetric HDAC activity kits were used to assay HDAC activity in cell lysates according to the manufacturer's instructions.

[5] = test system: CD-1 mice; test: Determination of the MTD in CD-1 mice; type: in vivo; settings: for Lethality (%): qd × 7; for Change of body weight (%) Day 7 / Change of body weight (%) Day 14 / Change of body weight (%) Day 21: qd × 7, mean±S.E.M.
Procedure: The MTD was determined using CD-1 mice at 8–10 weeks of age by dose ranging from 250 to 1000 mg/kg orally once a day for 1 week and then monitored for another 2 weeks. Each dose was tested on six mice in individual independent experiments. MTD was defined as the highest dose that could be given resulting in no drug-related moribund state or death, while temporary body weight loss was within 20%.

[6] = molecular target: T2, recombinant HDAC8 (Homo sapiens, UniProt Q9BY41); test: Fluorogenic assay kit, recombinant HDAC8 enzyme activity; type: biochemical; settings: mean±S.E.M., three replicate experiments; read-out: IC50 (nM) of HDAC isoforms enzyme, DHAC8
T2 construct: purchased BPS Bioscience Corp. (San Diego, CA, USA)
T2 sequence (Q9BY41 whole entry, canonical isoform): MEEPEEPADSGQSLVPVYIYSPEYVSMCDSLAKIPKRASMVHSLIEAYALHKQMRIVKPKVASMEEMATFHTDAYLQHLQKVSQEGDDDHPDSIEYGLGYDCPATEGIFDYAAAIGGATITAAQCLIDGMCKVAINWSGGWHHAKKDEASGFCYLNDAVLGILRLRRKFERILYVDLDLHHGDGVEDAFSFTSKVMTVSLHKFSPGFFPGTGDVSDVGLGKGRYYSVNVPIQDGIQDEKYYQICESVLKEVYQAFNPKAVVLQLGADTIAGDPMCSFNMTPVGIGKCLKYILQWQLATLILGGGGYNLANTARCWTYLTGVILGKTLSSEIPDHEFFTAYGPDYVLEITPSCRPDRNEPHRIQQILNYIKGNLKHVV
From the text: as §1

[7] = test system: p21 in RA-FLS; test: p21 expression in RA-FLS by flow cytometry
Procedure: After three washes with FACS washing buffer, the fluorescence of the cells was analyzed on a FACScan flow cytometer (BD Biosciences). […] They were then incubated for 30 min at room temperature with 0.2 ml of DNA extraction buffer (0.2 M Na2HPO4 and 0.1 M citric acid buffer, pH 7.8), resuspended in 1 ml of propidium iodide staining buffer (0.1% Triton X-100, 100 μg/ml of RNase A and 80 μg/ml of propidium iodide in PBS), incubated at 37 °C for 30 min in the dark, sorted by FACScan, and analyzed using CellQuest software (BD Biosciences).

[8] = test system: NF-κB in RAW264.7 cells; test: NF-κB luciferase reporter gene assay, RANKL-induced; type: cell-based, mouse; settings: RAW264.7, 5 nM, RANKL 50 ng/ml 24 h
Procedure: We also assessed the effect of MTP0G009 on the DNA-binding activity of NF-κB and NFATc1, two pivotal transcriptional factors involved in RANKL-induced pathways for promoting osteoclast differentiation.[14], [15] When RAW264.7 cells that had been transiently transfected with reporter plasmids were treated with 5 nM MPT0G009 for 30 min before and during 24-h stimulation with RANKL, MPT0G009 inhibited RANKL-induced NF-κB (Figure 3d) and NFATc1 (Figure 3e) luciferase activity.
RAW264.7 cells or RA-FLSs were seeded 1 day before transfection. […] For the reporter gene assay, 100 μl of reporter lysis buffer (Promega Corp.) was added, then the cells were scraped off the dishes, centrifuged at 17 000 g for 30 s at 4 °C and the supernatants collected. Aliquots of cell lysates (20 μl) were placed in the wells of an opaque black 96-well microtiter plate, then 40 μl of luciferase substrate (Promega Corp.) was added and the luminescence immediately measured in a microplate luminometer (Beckman Coulter, Krefeld, Germany).

[9] = Pharmacokinetic evaluation in Sprague–Dawley rats; type: in vivo; settings: male, plasma, rat
Procedure: The pharmokinetic parameters of MPT0G009 in rats after single-dose intravenous (i.v.) and oral administration are summarized in Table 2.
A 1–5 mg/ml dosing solution was preparing by dissolving appropriate amount compound in a mixture of PEG400/DMSO (80 : 20, v/v) for i.v. administration and 1% carboxylmethyl cellulose, 0.5% Tween 80 for oral dosing, respectively. Eight to 10-week-old male Sprague–Dawley rats were obtained from BioLASCO Corp. (Ilan, Taiwan), and tested compound was separately administered to group of rats (n=3 per group) i.v. (2 mg/kg dose) by a bolus injection to jugular vein or periorally (20 mg/kg dose). Blood sample (0.15 ml) from 0 h (before dosing) to 24 h was collected from each animal via the jugular vein cannula and stored in ice. Plasma was separated from the blood and centrifuged at 14 000 g for 30 min at 4 °C. All samples were analyzed for the test compound by LC-MS/MS (ABI4000; Applied Biosystems, Foster City, CA, USA). Data were acquired via multiple reactions monitoring. Plasma concentration data were analyzed with standard noncompartmental method.

[10] = test system: HIG-82 synoviocytes; test: Cell proliferation assay (SRB), HIG-82 synoviocytes; type: cell-based, rabbit; settings: 24 or 48 h

SMILES: COc1ccc(S(=O)(=O)N2CCc3cc(C=CC(=O)NO)ccc32)cc1 [MPT0G009, 3-[1-(4-methoxybenzenesulfonyl)-2,3-dihydro-1H-indol-5-yl]-N-hydroxyacrylamide]
- formation of M-CSF/RANKL-induced TRAP-positive cells [1]: significantly inhibited
- IC50 [2]: 5.16 ± 0.76 nM
- acetylation of histone H3 (Acetyl-H3) [3]: significant hyperacetylation
- potency relative to SAHA on HDACs inhibition [4]: > 10 times
- Lethality (%) ([5]; 250 mg/kg p.o.): 0%
- Change of body weight (%) Day 7 ([5]; 250 mg/kg p.o.): +8.7±0.5%
- Change of body weight (%) Day 14 ([5]; 250 mg/kg p.o.): +17.0±0.4%
- Change of body weight (%) Day 21 ([5]; 250 mg/kg p.o.): +22.6±0.6%
- Lethality (%) ([5]; 500 mg/kg p.o.): 0%
- Change of body weight (%) Day 7 ([5]; 500 mg/kg p.o.): +1.6±0.3%
- Change of body weight (%) Day 14 ([5]; 500 mg/kg p.o.): +16.5±0.6%
- Change of body weight (%) Day 21 ([5]; 500 mg/kg p.o.): +24.0±0.9%
- Lethality (%) ([5]; 1000 mg/kg p.o.): 0%
- Change of body weight (%) Day 7 ([5]; 1000 mg/kg p.o.): +4.4±0.6%
- Change of body weight (%) Day 14 ([5]; 1000 mg/kg p.o.): +12.0±0.7%
- Change of body weight (%) Day 21 ([5]; 1000 mg/kg p.o.): +15.3±0.8%
- adverse effects / tolerability ([5]; up to 1000 mg/kg/day, daily × 7, within 3 weeks): No significant adverse effects; also recorded: well tolerated and safe
- IC50 [6]: 22.5 ± 2.16 nM
- expression of p21 ([7]; RA-FLS 24 h, 1 μM MPT0G009 or 3 μM SAHA, flow cytometry or western blot): significantly increased
- p21 (flow cytometry) ([7]; RA-FLS, 1 μM, 24 h, Figure 1h): 94.71%
- RANKL-induced NF-κB luciferase activity [8]: inhibited
- AUC(0-inf) ([9]; iv, i.v. 2 mg/kg): 665 ng·h/mL
- Vd ([9]; iv, i.v. 2 mg/kg): 25.2 L/kg
- clearance ([9]; iv, i.v. 2 mg/kg): 85.3 mL/min/kg
- half-life ([9]; iv, i.v. 2 mg/kg): 6.74 h
- AUC(0-inf) ([9]; po, p.o. 20 mg/kg): 1260 ng·h/mL
- Cmax ([9]; po, p.o. 20 mg/kg): 221 ng/mL
- Tmax ([9]; po, p.o. 20 mg/kg): 3.43 h
- half-life ([9]; po, p.o. 20 mg/kg): 9.53 h
- bioavailability ([9]; po, p.o. 20 mg/kg, read-out: F (oral bioavailability)): 13%
- anti-proliferative effect [10]: concentration-dependent anti-proliferative effects
